Laboratory results as given in article PMC9394284, “Discovery of Novel Dual Adenosine A2A and A1 Receptor Antagonists with 1H-Pyrazolo[3,4-d]pyrimidin-6-amine Core Scaffold as Anti-Parkinson’s Disease Agents” (Pharmaceuticals, 2022).
Where two headings read alike, the source gives them in different places.

Key:
[1] = pharmacokinetics and brain/plasma ratio in mouse brain; assay type: in vivo, Crl:CD-1 mice; details: male; for AUC(0-t) / Cmax / Tmax / half-life: mouse brain
Method: Male Crl:CD-1 mice of 9~10 weeks of age were purchased from Charles River Laboratories, USA and maintained at standard food and water ad libitum in temperature-controlled room with 12 h on-off light cycle before the experiment. All procedures described were reviewed and approved by the Institutional Animal Care and Use Committee (IACUC) at Frontage Laboratories Inc. For PO dosing, mice were given 11o dissolved in DMSO: PEG400 (1:3, v:v) via gavage. For IV dosing, 11o solubilized in DMSO: PEG400: saline (1:3:6, v:v) were injected into tail veins at dose volume of 1 mL/kg. For IN dosing, 11o solubilized in DMSO and 25 μL of the appropriate dosing solution was placed near the nares to allow animal to inhale the dose. Three mice were sampled from each group for each blood and brain collection time point. Time points are 0.5, 1, 2, 4, 8, 24 h for PO and IN dosing and 0.083, 1, 2, 4, 8 and 24 h for IV dosing. Mice were euthanized by terminal retro-orbital blood collection under isoflurane anesthesia, followed by opening of the thoracic cavity per facility SOPs. A target volume of 1 mL was collected into tubes containing K3EDTA anti-coagulant, inverted several times and held on wet ice until centrifuged under refrigeration (set at 5 °C for 10 min at 2000× g). Resulting plasma were stored in a freezer set to maintain −70 °C until analyzed for 11o concentration. Brain was removed from each animal and weighed following termination, snap frozen and stored until later use. Plasma and brain PK analysis was conducted using WinNolin Version 6.2.1 (Pharsight, Mountain View, CA, USA), operating as a validated software system. Noncompartmental analysis was conducted using the extravascular administration model for oral dosing and the IV bolus model for IV dosing. The peak plasma and brain concentration, time to achieve peak plasma concentration, half-life, and area under the plasma concentration-time curve (Cmax, Tmax, T1/2 and AUC) were calculated from mean plasma concentrations for each sampling time/dose group for 11o. Nominal blood collection times were used for calculation of PK parameters. Dose proportionality was assessed, and bioavailability was calculated for PO dosing.

hERG = molecular target: T1, hERG (Homo sapiens, UniProt Q12809); test: hERG manual patch clamp in hERG-expressing HEK cells; assay type: cell-based; details: read-out: hERG inhibition IC50
T1 construct: host or cells: HEK cells stably expressing hERG
T1 sequence (Q12809 whole entry): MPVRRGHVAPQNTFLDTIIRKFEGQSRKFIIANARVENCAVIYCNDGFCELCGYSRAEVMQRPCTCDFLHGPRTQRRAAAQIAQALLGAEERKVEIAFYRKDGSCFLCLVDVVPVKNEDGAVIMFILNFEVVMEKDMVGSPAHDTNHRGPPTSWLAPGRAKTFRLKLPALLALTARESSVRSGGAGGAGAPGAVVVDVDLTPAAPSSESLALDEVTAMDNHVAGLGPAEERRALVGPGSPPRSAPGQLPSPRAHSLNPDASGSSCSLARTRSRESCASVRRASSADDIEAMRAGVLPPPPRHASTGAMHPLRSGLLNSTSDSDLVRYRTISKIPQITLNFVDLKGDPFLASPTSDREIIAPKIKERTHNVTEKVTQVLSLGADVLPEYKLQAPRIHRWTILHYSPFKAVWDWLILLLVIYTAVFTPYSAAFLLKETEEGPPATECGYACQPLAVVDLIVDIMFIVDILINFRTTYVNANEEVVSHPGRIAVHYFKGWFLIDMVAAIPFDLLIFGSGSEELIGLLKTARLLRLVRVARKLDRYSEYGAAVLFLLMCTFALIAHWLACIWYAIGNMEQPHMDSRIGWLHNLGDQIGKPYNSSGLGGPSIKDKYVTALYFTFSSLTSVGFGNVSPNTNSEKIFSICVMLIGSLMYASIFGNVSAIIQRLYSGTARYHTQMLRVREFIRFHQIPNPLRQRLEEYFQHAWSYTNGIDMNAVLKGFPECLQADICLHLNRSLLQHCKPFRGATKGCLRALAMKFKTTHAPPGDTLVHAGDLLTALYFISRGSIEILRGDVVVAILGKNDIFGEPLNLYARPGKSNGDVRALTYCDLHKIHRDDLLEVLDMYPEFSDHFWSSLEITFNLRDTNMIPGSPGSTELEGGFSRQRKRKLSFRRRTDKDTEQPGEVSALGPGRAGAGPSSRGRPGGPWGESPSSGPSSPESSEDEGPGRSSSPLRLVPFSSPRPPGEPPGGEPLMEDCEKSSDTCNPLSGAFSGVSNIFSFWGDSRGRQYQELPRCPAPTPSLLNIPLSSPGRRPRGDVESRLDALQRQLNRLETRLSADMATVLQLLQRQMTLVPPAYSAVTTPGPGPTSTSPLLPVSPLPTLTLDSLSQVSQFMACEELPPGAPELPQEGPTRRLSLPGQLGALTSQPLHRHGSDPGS
Method: hERG (human-ether-a-go-go) liability was investigated in an hERG-expressing HEK cell line using the manual patch clamp method to assess the potential cardiotoxicity of 11o.
hERG ion channel-blocking profile of acute exposure to 11o was performed in stably expressing HEK cells at Nova Research Laboratories (New Orleans, LA, USA). Briefly, cloned equivalent of the human IKr, hERG, was used. Cells were obtained from Cytogentrics Bioscience GmbH (Jachim-Jungius-Strafe 9, 18,059 Rostock, Germany). Internal and external recording solutions as well as data acquisition and analysis were as previously described.

[2] = Crl:CD-1, inhaled or intranasal, 1 mg/kg IN
[3] = Crl:CD-1, inhaled or intranasal, 3 mg/kg IN
[4] = Crl:CD-1, inhaled or intranasal, 10 mg/kg IN

`Cc1cc(Cn2ncc3c(-c4cccc(C#N)c4F)nc(N)nc32)ccc1N` [11o, 3-(6-Amino-1-(4-amino-3-methylbenzyl)-1H-pyrazolo[3,4-d]pyrimidin-4-yl)-2-fluorobenzonitrile] gave a Kp ([1]; Crl:CD-1, brain/plasma, other: intranasal (IN), placed near the nares, mouse, IN 1, 3 and 10 mg/kg, read-out: B/P ratio, IN dosing groups) of 0.0698 to 0.183, a Kp ([1]; Crl:CD-1, brain/plasma, mouse, PO 1, 3 and 10 mg/kg, read-out: B/P ratio, PO dosing groups) of 0.0242 to 0.167 and an AUC(0-t) [1, 2] of 5.23 ng·h/mL. For the same compound, the Cmax [1, 2] was 9.63 ng/mL, the Tmax [1, 2] was 0.5 h and the AUC(0-t) [1, 3] was 14.2 ng·h/mL. The Cmax [1, 3] was 15.9 ng/mL, the Tmax [1, 3] was 0.5 h and the AUC(0-t) [1, 4] was 81.3 ng·h/mL. For the same compound, the Cmax [1, 4] was 38.2 ng/mL, the Tmax [1, 4] was 0.5 h and the half-life [1, 4] was 3.74 h. The Kp ([1]; Crl:CD-1, mouse, other: IN (intranasal, placed near the nares to inhale), 10 mg/kg IN, Brain AUClast/Plasma AUClast, read-out: B/P Ratio) was 0.183, the Kp ([1]; Crl:CD-1, mouse, other: IN dosing, solution placed near the nares to inhale, 1 mg/kg IN, Brain AUClast/Plasma AUClast, read-out: B/P Ratio) was 0.0698 and the Kp ([1]; Crl:CD-1, mouse, other: IN dosing, solution placed near the nares to inhale, 3 mg/kg IN, Brain AUClast/Plasma AUClast, read-out: B/P Ratio) was 0.0776. It also gave a Kp ([1]; Crl:CD-1, mouse, 1 mg/kg IV, Brain AUClast/Plasma AUClast, read-out: B/P Ratio) of 0.741, a Kp ([1]; Crl:CD-1, mouse, 1 mg/kg PO, Brain AUClast/Plasma AUClast, read-out: B/P Ratio) of 0.0242 and a Kp ([1]; Crl:CD-1, mouse, 3 mg/kg PO, Brain AUClast/Plasma AUClast, read-out: B/P Ratio) of 0.0977. The Kp ([1]; Crl:CD-1, mouse, 10 mg/kg PO, Brain AUClast/Plasma AUClast, read-out: B/P Ratio) was 0.167, the AUC(0-t) ([1]; Crl:CD-1, 1 mg/kg IV) was 246 ng·h/mL and the Cmax ([1]; Crl:CD-1, 1 mg/kg IV) was 410 ng/mL. For the same compound, the Tmax ([1]; Crl:CD-1, 1 mg/kg IV) was 0.083 h, the AUC(0-t) ([1]; Crl:CD-1, 1 mg/kg PO) was 4.26 ng·h/mL and the Cmax ([1]; Crl:CD-1, 1 mg/kg PO) was 5.58 ng/mL. It also gave a Tmax ([1]; Crl:CD-1, 1 mg/kg PO) of 2 h, an AUC(0-t) ([1]; Crl:CD-1, 3 mg/kg PO) of 56.4 ng·h/mL and a Cmax ([1]; Crl:CD-1, 3 mg/kg PO) of 12.8 ng/mL. For the same compound, the Tmax ([1]; Crl:CD-1, 3 mg/kg PO) was 0.5 h, the half-life ([1]; Crl:CD-1, 3 mg/kg PO) was 3.23 h and the AUC(0-t) ([1]; Crl:CD-1, 10 mg/kg PO) was 375 ng·h/mL. It also gave a Cmax ([1]; Crl:CD-1, 10 mg/kg PO) of 48.1 ng/mL, a Tmax ([1]; Crl:CD-1, 10 mg/kg PO) of 2 h and a half-life ([1]; Crl:CD-1, 10 mg/kg PO) of 7.71 h. The IC50 (hERG) was 116 µM.
